Data on twelve molecules can be found in patent publication US5786508A, “Substituted kynurenines and process for their preparation” (Pharmacia & Upjohn S.p.A., priority 1995, dated 1998).

SMILES strings stand for the structures. pKi: −log10 of the molar value.

Test [1] deals with Kynurenine Aminotransferase (KAT). As to the kind of experiment: Determination of KAT activity inhibition in rat brain homogenate. Type of test: biochemical. The settings on record: 2 μM [3H]KYN, 2 h at 37° C., pH 8.0. Here is the method:
A) Determination of KAT activity inhibition in rat brain homogenate
KAT was measured as described in detail by Okuno et al. (Measurement of rat brain kynurenine amino-transferase at physiological kynurenine concentrations, J. Neurochem., 57, 533-540, 1991).
Briefly, animals were killed by decapitation and the brain tissue was homogenized (1:5 v/w in 5 mM Tris-acetate buffer, pH 8.0, containing 10 mM 2-mercaptoethanol and 50 μM pyridoxal 5'-phosphate) and incubated for 2 h at 37° C. in the presence of 2 μM [^3 H]KYN (30 nCi), 1 mM 2-oxoglutarate and 70 μM pyridoxal 5'-phosphate in 150 mM Tris-acetate buffer, pH 8.0. The reaction was terminated by the addition of trichloroacetic acid.
Newly synthesized [^3 H]KYNA was separated from [^3 H]KYN on a Dowex 50W cation-exchange column and quantitated by liquid scintillation spectrometry. Blanks were obtained by using tissue which had been heat-deactivated for 10 minutes in a boiling water bath.

In test [2] the test system is KYNA production. As to the kind of experiment: Determination of inhibition of KYNA production by rat tissue slices (cerebral cortex). The class given is cell-based. The settings on record: 50 μM L-KYN, 2 h at 37° C. Here is the method:
B) Determination of inhibition of KYNA production by rat tissue slices
Routinely, slices (base 1×1 mm; weight 1.5 mg/slice) from the cerebral cortex were separated on ice and transferred to culture wells (10 slices/well) containing 1 ml of oxygenated Krebs-Ringer buffer (NaCl, 118.5 mM; KCl, 4.75 mM; CaCl2, 1.77 mM; MgSO4, 1.18 mM; NaH2 PO4, 12.9 mM; NaH2 PO4, 3 mM; glucose, 5 mM; pH 7.4). Subsequently, the tissue was preincubated for 10 min at 37° C. and incubated further for 2 h at 37° C., in the presence of 50 μM L-KYN in an oxygenated chamber, on a shaking water bath. Compounds of the present invention were included in the incubation mixture as needed. Following incubation, the culture wells were immediately placed on ice, and the slices were rapidly separated from the incubation medium. For KYNA determination, 1 ml samples of the incubation medium were immersed in a boiling water bath for 10 min, and the precipitated proteins were removed by centrifugation (8,730×g, 10 min). The supernatants were diluted (1:1, v/v) with 0.2M HCl and applied to Dowex 50W (hydrogen form, Sigma) cation-exchange columns (0.5×2 cm). Subsequently, the columns were washed with 1 ml of 0.1M HCl and 1 ml of water, and the fraction containing KYNA was eluted with 2 ml of water. The eluates were applied to a 3-μm C18 HPLC column (100×3.2 internal diameter, Bioanalytical Systems, West Lafayette, Ind., U.S.A.), and KYNA was isocratically eluted with a mobile phase containing 50 mM ammonium acetate and 5% methanol at a flow rate of 0.5 ml/min. Under these conditions, the retention time of KYNA was ≈7 min.
Data were recorded and calculated with a Hewlett-Packard 3390A integrator connected to a model 160 UV absorbance detector (Beckman Instruments, Berkeley, Calif., U.S.A.) set at 340 nm.

Test [3] has as its system glycine modulatory site of the N-methyl-D-aspartate (NMDA) receptor complex. The settings on record: J. Neurochem., 52, 1319-1328, 1989; in words; cited from earlier work.
In test [4] the target is T1, KAT (Rattus norvegicus, UniProt Q08415).
T1 construct: a preparation of partially purified enzyme; from tissue; the cited method purifies from rat kidney and brain (own knowledge)
T1 sequence (Q08415 1-423): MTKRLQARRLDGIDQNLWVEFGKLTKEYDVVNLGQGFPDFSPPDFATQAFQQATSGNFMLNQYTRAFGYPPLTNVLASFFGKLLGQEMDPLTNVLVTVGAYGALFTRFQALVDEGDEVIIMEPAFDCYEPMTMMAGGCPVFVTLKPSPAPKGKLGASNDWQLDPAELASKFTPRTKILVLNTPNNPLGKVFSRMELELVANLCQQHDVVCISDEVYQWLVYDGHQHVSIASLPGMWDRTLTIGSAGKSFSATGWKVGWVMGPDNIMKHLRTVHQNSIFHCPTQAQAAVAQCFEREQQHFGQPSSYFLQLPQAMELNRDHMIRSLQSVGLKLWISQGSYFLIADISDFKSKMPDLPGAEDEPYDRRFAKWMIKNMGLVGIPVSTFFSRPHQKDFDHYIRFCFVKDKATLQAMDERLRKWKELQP
Briefly: Kinetic analysis of KAT inhibitors using a partially purified enzyme preparation. The class given is biochemical. The note with it: KYN 2 μM to 2 mM; double reciprocal plots; pyruvate 1 mM; pH 8.0, 37° C. Here is the method: C) Kinetic analysis of KAT inhibitors using a partially Purified enzyme Preparation (Brain Research, 534, 37-44 (1990)
The reaction mixture contained [^3 H]KYN (30 nCi), diluted with unlabelled KYN to yield a final concentration of 2 μM, 1 mM pyruvate, 70 μM pyridoxal 5'-phosphate, 150 mM Tris-acetate buffer, pH 8.0, and a preparation of partially purified enzyme in a total volume of 0.1 ml. Test compounds were included in the incubation mixture as needed. The reaction was started by the addition of pyruvate. After incubation for 2 h at 37° C., the reaction was terminated by the addition of 14 μl of 50% (w/w) trichloroacetic acid. Subsequently, 1 ml of 0.1M HCl was added and denaturated protein was removed by a 4-min centrifugation in a Beckman 52B microfuge. 1 ml of the resulting supernatant was applied to a Dowex 50W column (0.5×1.0 cm; H^+ form) and washed with 1 ml of 0.1M HCl, followed by 1 ml of distilled water. [^3 H]KYNA was eluted with 2 ml of distilled water and quantitated by liquid scintillation spectrometry. Enzyme measurements were performed in triplicate samples. […]
Kinetic experiments were performed using the standard KAT assay described above by varying the concentration of KYN between 2 μM and 2 mM in the absence or presence of set concentrations of test compounds. Double reciprocal plots were constructed and lines of best fit were determined by linear regression analysis.

A word on the inhibition: it is the share of the control response that was lost under treatment. A low value points to little suppression. Regarding `CC(C)c1ccc(N)c(C(=O)CC(N)C(=O)O)c1` (centres unmarked) [FCE 28441, 2-amino-4-(2-amino-5-isopropylphenyl)-4-oxo-butyric acid], the “KYNA production % of inhibition” value in test [1] (100 μM) is 45%. The “KYNA production % of inhibition” value in test [1] (1000 μM) stood at 72%. For the same molecule, in test [2], testing at 100 µM gave an inhibition of 5% and the inhibition at 1000 µM stood at 54%.

In the case of `Nc1ccc(F)cc1C(=O)CC(N)C(=O)O` (centres unmarked) [FCE 27949, 2-amino-4-(2-amino-5-fluorophenyl)-4-oxo-butyric acid], the “KYNA production % of inhibition” value in test [1] (100 μM) is reported as 30%. Further, the “KYNA production % of inhibition” value in test [1] (1000 μM) is listed as 74%. In test [2], testing at 100 µM gave an inhibition of 48% and the inhibition at 1000 µM was 70%.

For `Nc1ccc(Cl)cc1C(=O)C[C@H](N)C(=O)O` [FCE 28443, (S)-(-)-2-amino-4-(2-amino-5-chlorophenyl)-4-oxo-butyric acid], in test [1] (100 μM), the “KYNA production % of inhibition” value was determined as 61%. Also, the “KYNA production % of inhibition” value in test [1] (1000 μM) was determined as 89%. In test [2], this molecule registered an inhibition at 100 µM of 67% and an inhibition at 1000 µM of 91%.

In the case of `CCc1ccc(N)c(C(=O)CC(N)C(=O)O)c1` (centres unmarked) [FCE 28026, 2-amino-4-(2-amino-5-ethylphenyl)-4-oxo-butyric acid], the “KYNA production % of inhibition” value in test [1] (100 μM) stood at 30%; in test [1] (1000 μM), 78%. The molecule also displayed an inhibition at 100 µM in test [2] of 8%. Moreover, in test [2], at 1000 µM the inhibition was 49%.

`Nc1ccc(Cl)cc1C(=O)C[C@@H](N)C(=O)O` [FCE 28442, (R)-(+)-2-amino-4-(2-amino-5-chlorophenyl)-4-oxo-butyric acid]: the “KYNA production % of inhibition” value in test [1] (1000 μM) is given as 31%. The inhibition at 1000 µM in test [2] came to 45%.

As to `CCCc1ccc(N)c(C(=O)CC(N)C(=O)O)c1` (centres unmarked) [FCE 28244, 2-amino-4-(2-amino-5-n-propylphenyl)-4-oxo-butyric acid], the “KYNA production % of inhibition” value in test [1] (100 μM) amounted to 50%. In test [1] (1000 μM), the “KYNA production % of inhibition” value came out at 72%. In test [2], this molecule came in with an inhibition at 100 µM of 27% and an inhibition at 1000 µM of 70%.

Turning to `Cc1ccc(N)c(C(=O)CC(N)C(=O)O)c1` (centres unmarked) [FCE 27946, 2-amino-4-(2-amino-5-methylphenyl)-4-oxo-butyric acid], the “KYNA production % of inhibition” value is listed as 13% in test [1] (100 μM) and 51% in test [1] (1000 μM). In test [2], this molecule yielded an inhibition at 1000 µM of 64%. This molecule returned an inhibition at 300 µM in test [2] (at 300 μM (footnote *)) of 50%.

Consider `Nc1ccc(C2CCCCC2)cc1C(=O)CC(N)C(=O)O` (centres unmarked) [FCE 28263, 2-amino-4-(2-amino-5-cyclohexylphenyl)-4-oxo-butyric acid], for which, in test [1] (100 μM), the “KYNA production % of inhibition” value came out at 47%. Further, the “KYNA production % of inhibition” value in test [1] (1000 μM) was found to be 77%. Also, in test [2], the inhibition at 100 µM is 28% and at 1000 µM the inhibition was 45%.

As to `O=C(O)c1cc(=O)c2ccccc2[nH]1` [KYNA, Kynurenic Acid], the “affinity to the glycine modulatory site of the NMDA receptor complex” value in test [3] is “particularly high affinity”.

In general, pKi refers to the Ki on a negative log10 scale, so that one unit is a factor of ten. A higher pKi goes with a low Ki. On to `Nc1ccc(Cl)cc1C(=O)CC(N)C(=O)O` (centres unmarked) [FCE 27813, 2-amino-4-(2-amino-5-chlorophenyl)-4-oxo-butyric acid], for which the “KYNA production % of inhibition” value turned out to be 45% in test [1] (100 μM) and 81% in test [1] (1000 μM). In test [2], the inhibition at 100 µM was 63%. 1000 µM produced 84% inhibition in test [2]. In addition, in test [4], the negative-log Ki (pKi) was 4.06.

Turning to `Nc1ccc(Br)cc1C(=O)CC(N)C(=O)O` (centres unmarked) [FCE 28264, 2-amino-4-(2-amino-5-bromophenyl)-4-oxo-butyric acid], the “KYNA production % of inhibition” value in test [1] (100 μM) was determined as 52%; in test [1] (1000 μM), 83%. In test [2], this molecule yielded an inhibition at 100 µM of 58%. 1000 µM produced 72% inhibition in test [2].

Usually Km stands for the concentration of substrate that gives half-maximal velocity. Take `Nc1ccccc1C(=O)C[C@H](N)C(=O)O` [L-kynurenine, reference compound]: in test [4], the Michaelis constant (Km) is 369 µM.
